HELM strings list units from the 5' end as sugar, base in round brackets, then linkage (d deoxyribose, r ribose, m 2'-O-methyl, p phosphodiester). Strings are as the collection lists them, not checked against the first reports. ss, as = sense and antisense strand; [una] = unlocked nucleic acid; [s4r] = 4'-thioribose; [fl2r] = 2'-fluoro
Further: test system not given here.

For the data set the following is noted: siRNA.
On to “RNA1{r(C)p.r(G)p.r(U)p.r(A)p.r(C)p.r(G)p.r(C)p.r(G)p.r(G)p.r(A)p.r(A)p.r(U)p.r(A)p.r(C)p.r(U)p.r(U)p.r(C)p.r(G)p.r(A)p.r(T)p.r(T)}|RNA2{[s4r](U)p.[s4r](C)p.r(G)p.r(A)p.r(A)p.r(G)p.r(U)p.r(A)p.r(U)p.r(U)p.r(C)p.r(C)p.r(G)p.r(C)p.r(G)p.r(U)p.r(A)p.[s4r](C)p.[s4r](G)p.r(T)p.r(T)}$$$RNA1{StrandType:ss}|RNA2{StrandType:as}$”, for which the target mRNA knockdown came to 88.8%.
Regarding “RNA1{r(C)p.r(G)p.r(U)p.r(A)p.r(C)p.r(G)p.r(C)p.r(G)p.r(G)p.r(A)p.r(A)p.r(U)p.r(A)p.r(C)p.r(U)p.r(U)p.r(C)p.r(G)p.r(A)p.r(T)p.r(T)}|RNA2{[s4r](U)p.[s4r](C)p.r(G)p.r(A)p.r(A)p.r(G)p.r(U)p.r(A)p.r(U)p.r(U)p.r(C)p.r(C)p.r(G)p.r(C)p.r(G)p.r(U)p.r(A)p.r(C)p.r(G)p.r(T)p.r(T)}$$$RNA1{StrandType:ss}|RNA2{StrandType:as}$”, the target mRNA knockdown came to 95%.
“RNA1{r(C)p.r(G)p.r(U)p.r(A)p.r(C)p.r(G)p.r(C)p.r(G)p.r(G)p.r(A)p.r(A)p.r(U)p.r(A)p.r(C)p.r(U)p.r(U)p.r(C)p.r(G)p.r(A)p.r(T)p.r(T)}|RNA2{[s4r](U)p.r(C)p.r(G)p.r(A)p.r(A)p.r(G)p.[s4r](U)p.r(A)p.[s4r](U)p.[s4r](U)p.r(C)p.r(C)p.r(G)p.r(C)p.r(G)p.[s4r](U)p.r(A)p.r(C)p.r(G)p.r(T)p.r(T)}$$$RNA1{StrandType:ss}|RNA2{StrandType:as}$” had a target mRNA knockdown of 79.5%.
In turn, “RNA1{r(C)p.r(G)p.r(U)p.r(A)p.r(C)p.r(G)p.r(C)p.r(G)p.r(G)p.r(A)p.r(A)p.r(U)p.r(A)p.r(C)p.r(U)p.r(U)p.r(C)p.r(G)p.r(A)p.r(T)p.r(T)}|RNA2{m(U)p.m(C)p.m(G)p.m(A)p.m(A)p.m(G)p.r(U)p.r(A)p.r(U)p.r(U)p.r(C)p.r(C)p.r(G)p.r(C)p.r(G)p.r(U)p.r(A)p.r(C)p.r(G)p.r(T)p.r(T)}$$$RNA1{StrandType:ss}|RNA2{StrandType:as}$” showed a target mRNA knockdown of 10.3%.
Substance “RNA1{r(C)p.r(G)p.r(U)p.r(A)p.r(C)p.r(G)p.r(C)p.r(G)p.r(G)p.r(A)p.r(A)p.r(U)p.r(A)p.r(C)p.r(U)p.r(U)p.r(C)p.r(G)p.r(A)p.r(T)p.r(T)}|RNA2{r(U)p.[s4r](C)p.r(G)p.r(A)p.r(A)p.r(G)p.r(U)p.r(A)p.r(U)p.r(U)p.[s4r](C)p.[s4r](C)p.r(G)p.[s4r](C)p.r(G)p.r(U)p.r(A)p.[s4r](C)p.r(G)p.r(T)p.r(T)}$$$RNA1{StrandType:ss}|RNA2{StrandType:as}$” had a target mRNA knockdown of 68.5%.
The value for “RNA1{r(C)p.r(G)p.r(U)p.r(A)p.r(C)p.r(G)p.r(C)p.r(G)p.r(G)p.r(A)p.r(A)p.r(U)p.r(A)p.r(C)p.r(U)p.r(U)p.r(C)p.r(G)p.r(A)p.r(T)p.r(T)}|RNA2{r(U)p.r(C)p.r(G)p.r(A)p.r(A)p.r(G)p.[s4r](U)p.[s4r](A)p.[s4r](U)p.[s4r](U)p.[s4r](C)p.[s4r](C)p.[s4r](G)p.r(C)p.r(G)p.r(U)p.r(A)p.r(C)p.r(G)p.r(T)p.r(T)}$$$RNA1{StrandType:ss}|RNA2{StrandType:as}$” was 36.5%; that for “RNA1{r(C)p.r(G)p.r(U)p.r(A)p.r(C)p.r(G)p.r(C)p.r(G)p.r(G)p.r(A)p.r(A)p.r(U)p.r(A)p.r(C)p.r(U)p.r(U)p.r(C)p.r(G)p.r(A)p.r(T)p.r(T)}|RNA2{r(U)p.r(C)p.r(G)p.r(A)p.r(A)p.r(G)p.r(U)p.r(A)p.r(U)p.r(U)p.r(C)p.r(C)p.r(G)p.[s4r](C)p.[s4r](G)p.[s4r](U)p.[s4r](A)p.[s4r](C)p.[s4r](G)p.r(T)p.r(T)}$$$RNA1{StrandType:ss}|RNA2{StrandType:as}$” was 72.2%; that for “RNA1{r(C)p.r(G)p.r(U)p.r(A)p.r(C)p.r(G)p.r(C)p.r(G)p.r(G)p.r(A)p.r(A)p.r(U)p.r(A)p.r(C)p.r(U)p.r(U)p.r(C)p.r(G)p.r(A)p.r(T)p.r(T)}|RNA2{r(U)p.r(C)p.r(G)p.r(A)p.r(A)p.r(G)p.r(U)p.r(A)p.r(U)p.r(U)p.r(C)p.r(C)p.r(G)p.m(C)p.m(G)p.m(U)p.m(A)p.m(C)p.m(G)p.r(T)p.r(T)}$$$RNA1{StrandType:ss}|RNA2{StrandType:as}$” was 30.8%.
“RNA1{r(C)p.r(G)p.r(U)p.r(A)p.r(C)p.r(G)p.r(C)p.r(G)p.r(G)p.r(A)p.r(A)p.r(U)p.r(A)p.r(C)p.r(U)p.r(U)p.r(C)p.r(G)p.r(A)p.r(T)p.r(T)}|RNA2{r(U)p.r(C)p.r(G)p.r(A)p.r(A)p.r(G)p.r(U)p.r(A)p.r(U)p.r(U)p.r(C)p.r(C)p.r(G)p.r(C)p.r(G)p.[s4r](U)p.[s4r](A)p.[s4r](C)p.[s4r](G)p.r(T)p.r(T)}$$$RNA1{StrandType:ss}|RNA2{StrandType:as}$” yielded a target mRNA knockdown of 85.6%.
The same measure for “RNA1{r(C)p.r(G)p.r(U)p.r(A)p.r(C)p.r(G)p.r(C)p.r(G)p.r(G)p.r(A)p.r(A)p.r(U)p.r(A)p.r(C)p.r(U)p.r(U)p.r(C)p.r(G)p.r(A)p.r(T)p.r(T)}|RNA2{r(U)p.r(C)p.r(G)p.r(A)p.r(A)p.r(G)p.r(U)p.r(A)p.r(U)p.r(U)p.r(C)p.r(C)p.r(G)p.r(C)p.r(G)p.r(U)p.r(A)p.[s4r](C)p.[s4r](G)p.r(T)p.r(T)}$$$RNA1{StrandType:ss}|RNA2{StrandType:as}$”: 90.2%.
As for “RNA1{r(C)p.r(U)p.[fl2r](A)p.[fl2r](A)p.r(G)p.r(C)p.r(C)p.r(U)p.r(G)p.[fl2r](U)p.r(U)p.r(U)p.r(C)p.r(U)p.r(U)p.r(C)p.r(C)p.r(U)p.r(C)p.r(T)p.r(T)}|RNA2{r(G)p.r(A)p.r(G)p.r(G)p.r(A)p.r(A)p.r(G)p.r(A)p.r(A)p.r(A)p.r(C)p.r(A)p.r(G)p.r(G)p.r(C)p.r(U)p.[fl2r](U)p.r(A)p.r(G)p.r(T)p.r(T)}$$$RNA1{StrandType:ss}|RNA2{StrandType:as}$”, the target mRNA knockdown was 85%.
Take “RNA1{r(C)p.r(U)p.[fl2r](A)p.r(G)p.r(A)p.r(G)p.r(G)p.r(A)p.r(U)p.r(C)p.r(U)p.r(U)p.r(G)p.r(A)p.r(A)p.r(G)p.r(A)p.r(C)p.r(C)p.r(T)p.r(T)}|RNA2{r(G)p.r(G)p.r(U)p.r(C)p.r(U)p.r(U)p.r(C)p.r(A)p.r(A)p.r(G)p.r(A)p.r(U)p.r(C)p.r(C)p.r(U)p.r(C)p.[fl2r](U)p.r(A)p.r(G)p.r(T)p.r(T)}$$$RNA1{StrandType:ss}|RNA2{StrandType:as}$”: the target mRNA knockdown was 82%.
The value for “RNA1{r(C)p.r(U)p.m(C)p.r(A)p.r(A)p.r(A)p.r(U)p.m(C)p.r(A)p.r(A)p.r(G)p.r(G)p.r(C)p.r(C)p.r(G)p.r(G)p.r(A)p.r(G)p.r(U)p.r(T)p.r(T)}|RNA2{r(A)p.r(C)p.r(U)p.r(C)p.r(C)p.r(G)p.r(G)p.r(C)p.r(C)p.r(U)p.m(U)p.r(G)p.r(A)p.r(U)p.r(U)p.m(U)p.r(G)p.r(A)p.r(G)p.r(T)p.r(T)}$$$RNA1{StrandType:ss}|RNA2{StrandType:as}$” was 82%.
In turn, “RNA1{r(C)p.r(U)p.r(A)p.r(A)p.r(G)p.r(G)p.r(A)p.r(C)p.r(C)p.r(U)p.r(A)p.r(A)p.r(C)p.r(A)p.r(A)p.[una](A)p.r(G)p.[una](U)p.[una](U)p.r(U)p.r(U)}|RNA2{r(A)p.r(A)p.r(C)p.r(U)p.r(U)p.r(U)p.r(G)p.r(U)p.r(U)p.r(A)p.r(G)p.r(G)p.r(U)p.r(C)p.r(C)p.r(U)p.r(U)p.r(A)p.r(G)p.r(U)p.r(U)}$$$RNA1{StrandType:ss}|RNA2{StrandType:as}$” came in with a target mRNA knockdown of 70%.
The same measure for “RNA1{r(C)p.r(U)p.r(A)p.r(A)p.r(G)p.r(G)p.r(A)p.r(C)p.r(C)p.r(U)p.r(A)p.r(A)p.r(C)p.r(A)p.r(A)p.r(A)p.r(G)p.r(U)p.[una](U)p.r(U)p.r(U)}|RNA2{r(A)p.r(A)p.r(C)p.r(U)p.r(U)p.r(U)p.r(G)p.r(U)p.r(U)p.r(A)p.r(G)p.r(G)p.r(U)p.r(C)p.r(C)p.r(U)p.r(U)p.r(A)p.r(G)p.r(U)p.r(U)}$$$RNA1{StrandType:ss}|RNA2{StrandType:as}$”: 60%; for “RNA1{r(C)p.r(U)p.r(A)p.r(G)p.r(A)p.r(G)p.r(G)p.r(A)p.r(U)p.r(C)p.r(U)p.r(U)p.r(G)p.r(A)p.r(A)p.r(G)p.r(A)p.r(C)p.r(C)p.r(T)p.r(T)}|RNA2{r(G)p.r(G)p.r(U)p.r(C)p.r(U)p.r(U)p.[fl2r](C)p.r(A)p.r(A)p.r(G)p.r(A)p.r(U)p.r(C)p.r(C)p.r(U)p.r(C)p.[fl2r](U)p.r(A)p.r(G)p.r(T)p.r(T)}$$$RNA1{StrandType:ss}|RNA2{StrandType:as}$”: 95%.
“RNA1{r(C)p.r(U)p.r(C)p.m(C)p.r(C)p.m(C)p.r(A)p.r(G)p.r(U)p.m(C)p.r(U)p.r(C)p.r(U)p.r(C)p.r(U)p.m(U)p.r(A)p.r(A)p.r(A)p.r(T)p.r(T)}|RNA2{r(U)p.r(U)p.m(U)p.r(A)p.r(A)p.r(G)p.r(A)p.r(G)p.r(A)p.r(G)p.r(A)p.r(C)p.m(U)p.r(G)p.r(G)p.r(G)p.r(G)p.r(A)p.r(G)p.r(T)p.r(T)}$$$RNA1{StrandType:ss}|RNA2{StrandType:as}$” gave a target mRNA knockdown of 68%.
As to “RNA1{r(C)p.r(U)p.r(C)p.m(U)p.r(G)p.r(G)p.r(C)p.r(C)p.r(U)p.r(U)p.r(U)p.r(C)p.r(U)p.r(C)p.r(U)p.r(C)p.m(U)p.r(A)p.r(G)p.r(T)p.r(T)}|RNA2{r(C)p.r(U)p.r(A)p.r(G)p.r(A)p.r(G)p.r(A)p.r(G)p.r(A)p.r(A)p.r(A)p.r(G)p.r(G)p.r(C)p.m(C)p.r(A)p.r(G)p.r(A)p.r(G)p.r(T)p.r(T)}$$$RNA1{StrandType:ss}|RNA2{StrandType:as}$”, the target mRNA knockdown was found to be 45%.
Take “RNA1{r(C)p.r(U)p.r(C)p.r(A)p.r(A)p.r(A)p.r(U)p.r(C)p.r(A)p.r(A)p.r(G)p.r(G)p.r(C)p.r(C)p.r(G)p.r(G)p.r(A)p.r(G)p.r(U)p.r(T)p.r(T)}|RNA2{r(A)p.r(C)p.r(U)p.r(C)p.r(C)p.r(G)p.r(G)p.r(C)p.r(C)p.r(U)p.m(U)p.r(G)p.r(A)p.r(U)p.r(U)p.m(U)p.r(G)p.r(A)p.r(G)p.r(T)p.r(T)}$$$RNA1{StrandType:ss}|RNA2{StrandType:as}$”: the target mRNA knockdown turned out to be 85%.
The substance “RNA1{r(C)p.r(U)p.r(C)p.r(C)p.r(C)p.r(C)p.r(A)p.r(G)p.r(U)p.r(C)p.r(U)p.r(C)p.r(U)p.r(C)p.r(U)p.r(U)p.m(A)p.r(A)p.r(A)p.r(T)p.r(T)}|RNA2{r(U)p.r(U)p.r(U)p.m(A)p.r(A)p.r(G)p.r(A)p.r(G)p.r(A)p.r(G)p.r(A)p.r(C)p.r(U)p.r(G)p.r(G)p.r(G)p.r(G)p.r(A)p.r(G)p.r(T)p.r(T)}$$$RNA1{StrandType:ss}|RNA2{StrandType:as}$” yielded a target mRNA knockdown of 69%.

Values taken from the OligoGym collection.
